Results taken from patent US20260226073A1 (AURIGENE ONCOLOGY LIMITED, priority 2023, published 2026).

Key:
[1] = target: T1, human recombinant CBL-b (human Biotin CBL-b recombinant protein a.a. 39-426) (Homo sapiens, UniProt Q13191); assay: Biochemical assay for CBL-b inhibition (ligand displacement TR-FRET); assay type: binding; settings: 50 nM CBL-b, 0.3 μM Bodipy FL-Probe, read-out: IC50 (CBL-b inhibition, group)
T1 construct: human Biotin CBL-b recombinant protein a.a; 39-426; Biotin (biotinylated); made in house
Outline: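 Ligand-displacement TR-FRET: 0.3 μM Bodipy FL probe competes with compound for 50 nM biotin-CBL-b (aa 39-426) after a 60 min RT compound pre-incubation; terbium-streptavidin detection, 60 min each step. Dose-response sigmoidal fitting gave IC50 and % maximum inhibition.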

[2] = test system: NFAT signaling pathway in Jurkat NFAT reporter cells; assay: Jurkat NFAT reporter assay; assay type: cell-based; settings: Homo sapiens, 30 min with compound, then soluble anti-human CD3/CD28 antibody for 6 hours, luciferase readout, read-out: EC50 (Group)
Procedure: A human T lymphocyte Jurkat reporter cell line was further used to assess activation of the nuclear factor of activated T-cells (NFAT) signaling pathway by Cbl-b inhibitors. The reporter cell line is a genetically engineered Jurkat T cell line that expresses a luciferase reporter driven by an NFAT-response element (NFAT-RE). The Cbl-b inhibitor was incubated with 1×10^5 Jurkat NFAT reporter cells per well for 30 minutes. Subsequently, cells were stimulated with soluble anti-human CD3/CD28 antibody for 6 hours resulting in NFAT-RE-mediated luminescence. The bioluminescent signal is detected and quantified using Bio-Glo™ Luciferase Assay System. Readouts were reported as fold change over baseline. Here, baseline was the measurement obtained from Jurkat NFAT reporter cells stimulated with anti-CD3 antibody and anti-CD28 antibody, where the cells were not incubated with a Cbl-b inhibitor.

T1 sequence (Q13191 39-426): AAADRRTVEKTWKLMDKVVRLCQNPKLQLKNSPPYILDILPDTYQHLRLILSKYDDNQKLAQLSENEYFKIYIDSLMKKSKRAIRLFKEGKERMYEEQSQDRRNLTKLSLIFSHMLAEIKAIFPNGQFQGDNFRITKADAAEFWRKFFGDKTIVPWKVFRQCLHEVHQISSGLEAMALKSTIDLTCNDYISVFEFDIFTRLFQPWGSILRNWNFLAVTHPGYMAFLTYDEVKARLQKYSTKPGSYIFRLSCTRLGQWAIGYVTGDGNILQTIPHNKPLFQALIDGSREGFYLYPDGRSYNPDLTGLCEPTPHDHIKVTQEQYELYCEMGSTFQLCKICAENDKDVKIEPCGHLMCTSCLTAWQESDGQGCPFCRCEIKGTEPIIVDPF

| SMILES | IC50 [1] [nM] | EC50 [2] [nM] |
| --- | --- | --- |
| C[C@@H](NC[C@@H]1CCCO1)c1cc(Cl)nc(N2Cc3ccc(C4(Cc5nncn5C)COC4)cc3C2=O)c1 (single isomer, unassigned) [Compound 219] | < 80 | < 300 |
| C[C@@H](NCC1CC(F)(F)C1)c1cc(Cl)nc(N2Cc3ccc(C4(Cc5nncn5C)COC4)cc3C2=O)c1 (single isomer, unassigned) [Compound 221] | < 80 | < 300 |
| C[C@H](NCC1CC(F)(F)C1)c1cc(Cl)nc(N2Cc3ccc(C4(Cc5nncn5C)COC4)cc3C2=O)c1 (single isomer, unassigned) [Compound 222] | < 80 | < 300 |
| C[C@H](NCc1cc(Cl)nc(N2Cc3ccc(C4(Cc5nncn5C)COC4)cc3C2=O)c1)C1CC1 (single isomer, unassigned) [Compound 223] | < 80 | < 300 |
| C[C@@H](NCc1cc(Cl)nc(N2Cc3ccc(C4(Cc5nncn5C)COC4)cc3C2=O)c1)C1CC1 (single isomer, unassigned) [Compound 224] | < 80 | 300 to 1000 |
| C[C@H](NC1CCCC1)c1cc(Cl)nc(N2Cc3ccc(C4(Cc5nncn5C)COC4)cc3C2=O)c1 (single isomer, unassigned) [Compound 231] | < 80 | < 300 |
| C[C@@H](NC1CCCC1)c1cc(Cl)nc(N2Cc3ccc(C4(Cc5nncn5C)COC4)cc3C2=O)c1 (single isomer, unassigned) [Compound 232] | < 80 | < 300 |
| Cn1cnnc1C[C@]1(c2ccc3c(c2)C(=O)N(c2cc(CNCC4CC4)cc(Cl)n2)C3)C[C@H](C#N)C1 (single isomer, unassigned) [Compound 233, (1r,3r)-3-(2-(6-Chloro-4-(((cyclopropylmethyl)amino)methyl)pyridin-2-yl)-3-oxoisoindolin-5-yl)-3-((4-methyl-4H-1,2,4-triazol-3-yl)methyl)cyclobutane-1-carbo-nitrile] | < 80 | < 300 |
| Cn1cnnc1C[C@]1(c2ccc3c(c2)C(=O)N(c2cc(CNCC4CC4)cc(Cl)n2)C3)C[C@@H](C#N)C1 (single isomer, unassigned) [Compound 234, (1s,3s)-3-(2-(6-Chloro-4-(((cyclopropylmethyl)amino)methyl)pyridin-2-yl)-3-oxoisoindolin-5-yl)-3-((4-methyl-4H-1,2,4-triazol-3-yl)methyl)cyclobutane-1-carbonitrile] | < 80 | 1000 to 10000 |
| C[C@H](N[C@H](C)c1cc(Cl)nc(N2Cc3ccc(C4(Cc5nncn5C)COC4)cc3C2=O)c1)C1CC1 (single isomer, unassigned) [Compound 239] | < 80 | < 300 |
| C[C@H](N[C@H](C)C1CC1)c1cc(Cl)nc(N2Cc3ccc(C4(Cc5nncn5C)COC4)cc3C2=O)c1 (single isomer, unassigned) [Compound 240] | < 80 | < 300 |
| Cn1cnnc1C[C@]1(c2ccc3c(c2)C(=O)N(c2cc(CNCC4CCC4)cc(Cl)n2)C3)C[C@H](C#N)C1 (single isomer, unassigned) [Compound 244, (1r,3r)-3-(2-(6-Chloro-4-(((cyclobutylmethyl)amino)methyl)pyridin-2-yl)-3-oxoisoindolin-5-yl)-3-((4-methyl-4H-1,2,4-triazol-3-yl)methyl)cyclobutane-1-carbonitrile] | < 80 | < 300 |
| C[C@H](N[C@@H](C)C1CC1)c1cc(Cl)nc(N2Cc3ccc(C4(Cc5nncn5C)COC4)cc3C2=O)c1 (single isomer, unassigned) [Compound 246] | < 80 | < 300 |
| C[C@H]1CCCN(Cc2cc(F)cc(N3Cc4ccc(C5(Cc6nncn6C)COC5)cc4C3=O)c2)C1 [Compound 3, (S)-2-(3-Fluoro-5-((3-methylpiperidin-1-yl)methyl)phenyl)-6-(3-((4-methyl-4H-1,2,4-triazol-3-yl)methyl)oxetan-3-yl)isoindolin-1-one] | < 80 | 1000 to 10000 |
| COc1cc(CN2CCC[C@H](C)C2)cc(N2Cc3ccc(C4(Cc5nncn5C)COC4)cc3C2=O)c1 [Compound 5, (S)-2-(3-Methoxy-5-((3-methylpiperidin-1-yl)methyl)phenyl)-6-(3-((4-methyl-4H-1,2,4-triazol-3-yl)methyl)oxetan-3-yl)isoindolin-1-one] | 80 to 300 | 1000 to 10000 |
| C[C@H]1CCCN(Cc2cc(C3CC3)cc(N3Cc4ccc(C5(Cc6nncn6C)COC5)cc4C3=O)c2)C1 [Compound 7, (S)-2-(3-Cyclopropyl-5-((3-methylpiperidin-1-yl)methyl)phenyl)-6-(3-((4-methyl-4H-1,2,4-triazol-3-yl)methyl)oxetan-3-yl)isoindolin-1-one] | 80 to 300 | 300 to 1000 |
| C[C@H]1CCCN(Cc2cccc(N3Cc4ccc(C5(Cc6nncn6C)COC5)cc4C3=O)c2)C1 [Compound 8, (S)-6-(3-((4-Methyl-4H-1,2,4-triazol-3-yl)methyl)oxetan-3-yl)-2-(3-((3-methyl-piperidin-1-yl)methyl)phenyl)isoindolin-1-one] | 300 to 5000 | 1000 to 10000 |
| C=Cc1cc(CN2CCC[C@H](C)C2)cc(N2Cc3ccc(C4(Cc5nncn5C)COC4)cc3C2=O)c1 [Compound 9, (S)-6-(3-((4-Methyl-4H-1,2,4-triazol-3-yl)methyl)oxetan-3-yl)-2-(3-((3-methyl-piperidin-1-yl)methyl)-5-vinylphenyl)isoindolin-1-one] | 80 to 300 | 300 to 1000 |
| C[C@H]1CCCN(Cc2cc(Br)cc(N3Cc4ccc(C5(Cc6nncn6C)COC5)cc4C3=O)c2)C1 [Compound 10, (S)-2-(3-Bromo-5-((3-methylpiperidin-1-yl)methyl)phenyl)-6-(3-((4-methyl-4H-1,2,4-triazol-3-yl)methyl)oxetan-3-yl)isoindolin-1-one] | < 80 | < 300 |
| Cn1cnnc1CC1(c2ccc3c(c2)C(=O)N(c2cc(CNCC4CC4)cc(C(F)(F)F)c2)C3)COC1 [Compound 13, 2-(3-(((Cyclopropylmethyl)amino)methyl)-5-(trifluoromethyl)phenyl)-6-(3-((4-methyl-4H-1,2,4-triazol-3-yl)methyl)oxetan-3-yl)isoindolin-1-one] | 80 to 300 | 1000 to 10000 |
| C[C@H]1CCCN(Cc2cc(N3CCCCC3)cc(N3Cc4ccc(C5(Cc6nncn6C)COC5)cc4C3=O)c2)C1 [Compound 14, (S)-6-(3-((4-Methyl-4H-1,2,4-triazol-3-yl)methyl)oxetan-3-yl)-2-(3-((3-methyl-piperidin-1-yl)methyl)-5-(piperidin-1-yl)phenyl)isoindolin-1-one] | 300 to 5000 | 1000 to 10000 |
| CC(C)c1cc(CN2CCC[C@H](C)C2)cc(N2Cc3ccc(C4(Cc5nncn5C)COC4)cc3C2=O)c1 [Compound 15, (S)-2-(3-Isopropyl-5-((3-methylpiperidin-1-yl)methyl)phenyl)-6-(3-((4-methyl-4H-1,2,4-triazol-3-yl)methyl)oxetan-3-yl)isoindolin-1-one] | 80 to 300 | 300 to 1000 |
| C[C@H]1CCCN(Cc2cc(N3Cc4ccc(C5(Cc6nncn6C)COC5)cc4C3=O)cc(C(C)(C)C)c2)C1 [Compound 16, (S)-2-(3-(tert-Butyl)-5-((3-methylpiperidin-1-yl)methyl)phenyl)-6-(3-((4-methyl-4H-1,2,4-triazol-3-yl)methyl)oxetan-3-yl)isoindolin-1-one] | 80 to 300 | 300 to 1000 |
